Assay results: patent US5395932A, “2,3-,4-,5-,6-,7-,8-,9- and/or 10-substituted dibenzoxazepine compounds, pharmaceutical compositions and methods of use” (G. D. Searle & Co., priority 1993, dated 1995)
Counter-ions that a name gives are not always drawn.

Columns and labels:
[1] = molecular target: T1, prostaglandin E2-induced contractions of segments of guinea pig ileum (Cavia porcellus, UniProt A0A286XHJ6); experiment: Prostaglandin (PGE) Antagonism Assay (guinea pig ileum); format: cell-based, male albino guinea pigs; conditions: estimated from 3 micromolar (dose ratio ≥2) or Schild plot (dose ratio ≥5); 37° C.; read-out: PGE ANTAGONISM IN GUINEA PIG ILEUM (pA2) (converted)
T1 construct: Segments of ileum about 2 cm long were then cut and mounted in a 10-mL tissue bath; from tissue; host or cells: guinea pig ileum segments
T1 sequence (A0A286XHJ6 1-405): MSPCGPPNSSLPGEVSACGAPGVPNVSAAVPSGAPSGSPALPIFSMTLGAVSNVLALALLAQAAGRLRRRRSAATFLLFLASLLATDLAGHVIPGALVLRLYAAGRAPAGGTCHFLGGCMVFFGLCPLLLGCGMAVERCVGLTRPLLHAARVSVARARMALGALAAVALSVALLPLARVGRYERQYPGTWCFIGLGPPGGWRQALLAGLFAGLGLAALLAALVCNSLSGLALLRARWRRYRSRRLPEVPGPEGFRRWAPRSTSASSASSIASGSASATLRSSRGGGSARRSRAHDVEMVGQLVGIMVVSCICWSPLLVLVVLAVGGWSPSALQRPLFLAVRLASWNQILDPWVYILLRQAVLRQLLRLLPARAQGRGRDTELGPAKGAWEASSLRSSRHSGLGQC
From the text: The phrase "EC50 concentration" as used herein means that concentration of a compound or drug which is necessary to elicit a 50% maximal biological response and, thus, which is necessary to elicit a 50% reduction in the contractions of guinea pig ileum segments in a prostaglandin antagonism assay. (b) Prostaglandin (PGE) Antagonism Assay In order to determine the effectiveness of several of the compounds of the present invention ("test compounds") as prostaglandin E2 antagonists,a prostaglandin antagonism assay was conducted, as described below, to determine the ability of these compounds to inhibit prostaglandin E2 -induced contractions of segments of guinea pig ileum. […] Male albino guinea pigs weighing 200 to 500 grams were sacrificed by cervical dislocation. The ilea were then quickly removed from the guinea pigs and placed in a modified Tyrode solution, a solution which is known to those skilled in the art, containing one-half of the usual amount of magnesium ions. Segments of ileum about 2 cm long were then cut and mounted in a 10-mL tissue bath containing the modified Tyrode solution. The solution was maintained at 37° C. and aerated with a gaseous mixture of 95% oxygen and 5% carbon dioxide. Data for a control prostaglandin E2 dose response curve plotting concentration of prostaglandin E2 versus the intensity of contractions, detected isotonically, was then obtained by experimentally adjusting the dose of the prostaglandin E2 being injected into the tissue bath, in a manner known by those of skill in the art. Solutions or suspensions containing an initial concentration (3 micromolar) of a test compound in modified Tyrode solution ("test solutions/suspensions") were then separately substituted for the control bath solution. Each test solution/suspension was then kept in constant contact with the ileum tissue, except for brief periods to drain the bath in preparation for rinsing with fresh test solution/suspension. A second prostaglandin E2 dose response curve was then generated for prostaglandin E2 in the presence of a test compound. A dose ratio of EC50 doses was then calculated from the results of each test in a manner known by those of skill in the art. A test compound was determined to be "active" if the initial concentration used yielded at least a two-fold shift (dose ratio greater than or equal to 2) in the dose response curve for prostaglandin E2. […] The compounds of the present invention which were tested in this assay, and for which results are presented in Table 1, correspond to the particular examples specified in Table 1.

[2] = Writhing Assay (PBQ-induced writhing, analgesia); format: in vivo, Charles River male albino mice; conditions: Mus musculus, po, intragastric; for responders at 30 mg/kg: 30 mg per kilogram, 25 minutes before PBQ i.p., writhes ≤ one-half median of saline control, read-out: WRITHING ASSAY, number of mice out of 9 or 10 in which test compound produced analgesia (converted)
Procedure: The phrase "ED50 dose" as used herein means that dose of a compound or drug which produced a biological effect, such as producing analgesia, in 50% of the animals to which the compound or drug was administered. The Writhing Assay is one of the most widely-used experimental procedures for measuring the analgesic activity of different narcotic and nonnarcotic analgesic agents, and involves the continuous, chemically-induced pain of visceral origin to an animal, such as a mouse or rat. [Gyires et al., Arch. int. Pharmacodyn, 267, 131-140 (1984); […] al., Fed. Proc., 15, 494 (1956); Koster et al., Fed. Proc., 18, 412 (1959); and Witken et al., J. Pharmacol. exp. Ther., 133, 400-408 (1961).] Chemicals which may be used to induce this pain include phenylbenzoquinone (PBQ) and acetic acid. As a result of the chemical irritation to the animal, a characteristic stretching and writhing of the animal (dorsiflexion of the animal's back, extension of its hindlimbs and the strong contraction of its abdominal musculature) will generally occur. […] Drugs which reduce the number of writhes of the animal appear to restore the normal nociceptive threshold of the animal. […] Charles River male albino mice, weighing 20 to 30 grams were used in this assay. Twenty-five minutes after intragastric administration to nine or ten mice of 30 mg per kilogram of body weight of a compound of the present invention ("test compound"), […] per 10 g of body weight of a 0.025% w/v solution of PBQ was injected intraperitoneally into each mouse. Ten mice which were given saline in place of a test compound of the invention were used as a control group. Five minutes later, each mouse was individually placed into a glass beaker for observation, and the number of writhes occurring during the following ten-minute period was counted. A test compound was considered to have produced analgesia in a mouse if, in accordance with the conditions set forth above, and under the test criteria employed for this assay, after the administration of 30 mg per kilogram of body weight of a compound of the present invention to the mouse, the number of writhes elicited by a mouse injected with PBQ was equal to, or less than, one-half the median number of writhes recorded for the saline-treated control group of mice that day, as described by Taber in "Predictive Value of Analgesic Assays in Mice and Rats," Advances in Biochemical Psychopharmacology, 8, 191 (1974). The results for the particular compounds of the present invention analyzed in this assay, and discussed in the examples identified below which correspond thereto, are presented in Table 1 hereinbelow as fractions under the heading "WRITHING ASSAY." The fractions indicate the number of mice out of nine or ten in which a test compound produced analgesia. The standard initial screening dose of a test compound employed in this assay was 30 milligrams per […] of body weight. If this initial screening dose of the test compound produced analgesia in seven of nine or ten mice, then the effect of additional doses of the test compound on the writhing response was evaluated, and then the ED50 dose was generally calculated. (The slopes of the dose-response curves for all test compounds analyzed were compared as described by Tallarida and Murray, Manual of Pharmacologic Calculations, Page 11 (Springer Verlag, New York, 1981)). All ED50 doses calculated are also presented below as whole numbers in Table 1, under the heading "WRITHING ASSAY."

Row | Kb [1] [nM] | SMILES | responders at 30 mg/kg [2] [%] | ED50 ([2]; mice, PBQ) [mg/kg]
1 | 1580 | OC(CCc1ccncc1)c1csc(N2Cc3ccccc3Oc3ccc(Cl)cc32)n1 (stereo not drawn) [Example 34B, α-[2-(8-Chlorodibenz[b,f][1,4]oxazepin-10(11H)-yl)-4-thiazolyl]-4-pyridinepropanol, dihydrochloride] | 50 | –
2 | 631 | O=C(NCc1csc(N2Cc3ccccc3Oc3ccc(Cl)cc32)n1)c1ccncc1 [Example 36, N-[[2-(8-Chlorodibenz[b,f][1,4]oxazepin-10(11H)-yl)-4-thiazolyl]methyl]-4-pyridinecarboxamide, hydrochloride] | 60 | –
3 | 1000 | O=C(NCc1cccnc1)c1csc(N2Cc3ccccc3Oc3ccc(Cl)cc32)n1 [Example 37, 2-(8-Chlorodibenz[b,f][1,4]oxazepin-10(11H)-yl)-N-(3-pyridinylmethyl)-4-thiazolecarboxamide, hydrochloride] | 10 | –

The remaining lines, values behind:

Row | SMILES | Kb [1] [nM] | responders at 30 mg/kg [2] [%] | ED50 ([2]; mice, PBQ) [mg/kg]
4 | O=C(Nc1cccnc1)c1csc(N2Cc3ccccc3Oc3ccc(Cl)cc32)n1 [Example 29, 2-(8-Chlorodibenz[b,f][1,4]oxazepin-10(11H)-yl)-N-3-pyridinyl-4-thiazolecarboxamide, hydrochloride] | 1000 | 60 | –
5 | O=C(CCc1ccncc1)c1csc(N2Cc3ccccc3Oc3ccc(Cl)cc32)n1 [Example 32, 1-[2-(8-Chlorodibenz[b,f][1,4]oxazepin-10(11H)-yl)-4-thiazolyl]-3-(4-pyridinyl)-1-propanone, monohydrochloride] | 631 | 60 | –
6 | OC(/C=C\c1ccncc1)c1csc(N2Cc3ccccc3Oc3ccc(Cl)cc32)n1 (stereo not drawn) [Example 34A, 2-(8-Chlorodibenz[b,f][1,4]oxazepin-10(11H)-yl)-a-[2Z(4-pyridinyl)ethenyl]-4-thiazolemethanol, hydrochloride] | 794 | – | 9.7
